Each structure is given as a SMILES string. In brackets after ≈: the same amount, converted by molar mass.

The test system of one test is P. aeruginosa ATCC 27853. Kind of test: microbe, parasite or virus in culture. It is filed as cell-based. The settings on record: Pseudomonas aeruginosa, ATCC27853, read-out: Minimum inhibitory concentration, P. aeruginosa ATCC 27853.
The test system of another test is N. gonorrhoeae WHO G. Kind of test: Liquid broth MIC in Fastidious broth. The settings on record: Neisseria gonorrhoeae, read-out: Minimum Inhibitory Concentration, WHO G.
The test system of another test is P. aeruginosa CDC-0095. Kind of test: microbe, parasite or virus in culture. The format is cell-based. The settings on record: Pseudomonas aeruginosa, CDC0095, read-out: Minimum inhibitory concentration, P. aeruginosa CDC-0095.
In a further test the test system is A. baumannii CDC-0033. Kind of test: microbe, parasite or virus in culture. It is filed as cell-based. The settings on record: Acinetobacter baumannii, CDC0033, read-out: MIC, A. baumannii CDC-0033.
The subject of another test is N. gonorrhoeae MS11. Kind of test: Liquid broth MIC in Fastidious broth. The settings on record: Neisseria gonorrhoeae, MS11, read-out: Minimum Inhibitory Concentration, MS11.
Another test has as its system P. aeruginosa CDC-0110. Kind of test: microbe, parasite or virus in culture. It is filed as cell-based. The settings on record: Pseudomonas aeruginosa, CDC0110, read-out: Minimum inhibitory concentration, P. aeruginosa CDC-0110.
A further test has as its system A. baumannii CDC-0036. Kind of test: microbe, parasite or virus in culture. The format is cell-based. The settings on record: Acinetobacter baumannii, CDC0036, read-out: MIC, A. baumannii CDC-0036.
For another test, the system named is A. baumannii 1258916. Kind of test: microbe, parasite or virus in culture. The format is cell-based, Acinetobacter baumannii. The settings on record: Acinetobacter baumannii, 1258916, read-out: MIC, A. baumannii 1258916.
The next test relates to N. gonorrhoeae WHO Q. Kind of test: Liquid broth MIC in Fastidious broth. The settings on record: Neisseria gonorrhoeae, read-out: Minimum Inhibitory Concentration, WHO Q.
In test [1] the test system is B. thailandensis ATCC 700388. Kind of test: microbe, parasite or virus in culture. The format is cell-based. The settings on record: Burkholderia thailandensis, ATCC700388, read-out: Minimum inhibitory concentration (MIC), B. thailandensis ATCC 700388.
In test [2] the target is T1, PBP3 from Acinetobacter baumannii (ATCC 19606) (Acinetobacter baumannii, UniProt A0ABX6CK25).
T1 sequence (A0ABX6CK25 64-610): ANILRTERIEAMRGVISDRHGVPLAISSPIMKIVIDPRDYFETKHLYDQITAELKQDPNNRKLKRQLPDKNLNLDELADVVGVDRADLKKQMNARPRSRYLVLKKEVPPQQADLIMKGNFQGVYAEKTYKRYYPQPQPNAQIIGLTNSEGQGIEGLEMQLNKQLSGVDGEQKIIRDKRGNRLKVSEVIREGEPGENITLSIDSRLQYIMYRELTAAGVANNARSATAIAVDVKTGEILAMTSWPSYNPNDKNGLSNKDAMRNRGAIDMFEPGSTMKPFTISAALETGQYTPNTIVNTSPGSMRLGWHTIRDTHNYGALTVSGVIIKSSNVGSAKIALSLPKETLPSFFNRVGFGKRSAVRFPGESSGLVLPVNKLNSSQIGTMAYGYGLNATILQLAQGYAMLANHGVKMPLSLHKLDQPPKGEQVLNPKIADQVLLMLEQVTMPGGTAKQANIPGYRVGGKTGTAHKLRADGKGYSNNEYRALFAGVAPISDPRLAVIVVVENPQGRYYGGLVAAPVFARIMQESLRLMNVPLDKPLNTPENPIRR
Kind of test: Bocillin-FL fluorescence polarization competition binding, A. baumannii PBP3. The settings on record: fluorescence polarization competition binding assay using Bocillin-FL; read-out: A. baumannii PBP3 Potency. Summed up:
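Purified PBPs pre-incubated with inhibitor (E. coli PBP3 1.5 μM, 30 min; P. aeruginosa PBP3 0.75 μM, A. baumannii PBP1a 1 μM and PBP3 0.2 μM, 15 min), then Bocillin-FL 0.1 μM (0.05 μM for PBP1a) added; FP read up to 60 min. EC50 = concentration halving bound Bocillin-FL.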
Background: In fluorescence polarisation assays a small probe gives low polarisation when free and higher when bound to something large.

`O=C(O)c1c(F)ccc2c1OB(O)[C@@H](NC(=O)C(NC(=O)N1CCN(S(=O)(=O)CCCNC(=O)[C@@H]3CCCN3)C1=O)c1cc(F)c(O)c(O)c1Cl)C2` (stereo partly drawn) [Example 275, (3R)-3-(2-(2-chloro-5-fluoro-3,4-dihydroxyphenyl)-2-(2-oxo-3-((3-((S)-pyrrolidine-2-carboxamido)propyl)sulfonyl)imidazolidine-1-carboxamido)acetamido)-7-fluoro-2-hydroxy-3,4-dihydro-2H-benzo[e][1,2]oxaborinine-8-carboxylic acid]: the MIC in the test with P. aeruginosa ATCC 27853 was 2 to 4 µg/mL (≈ 2.59 to 5.18 µM); in the test on N. gonorrhoeae WHO G, 16 to 32 µg/mL (≈ 20.7 to 41.4 µM); in the test on P. aeruginosa CDC-0095, 8 to 16 µg/mL (≈ 10.4 to 20.7 µM); with A. baumannii CDC-0033, 8 to 16 µg/mL (≈ 10.4 to 20.7 µM); in the test on N. gonorrhoeae MS11 it was 16 to 32 µg/mL (≈ 20.7 to 41.4 µM); in the test with P. aeruginosa CDC-0110 it was below 1 µg/mL. For the same compound, the MIC is 2 to 4 µg/mL (≈ 2.59 to 5.18 µM) with A. baumannii CDC-0036, below 1 µg/mL in the test on A. baumannii 1258916, 16 to 32 µg/mL (≈ 20.7 to 41.4 µM) in the test with N. gonorrhoeae WHO Q and below 1 µg/mL in test [1]. Besides, the IC50 in test [2] was below 10 µM.
Consider `O=C(NCCCS(=O)(=O)N1CCN(C(=O)NC(C(=O)N[C@H]2Cc3ccc(F)c(C(=O)O)c3OB2O)c2cc(F)c(O)c(O)c2Cl)C1=O)Nc1ccc(O)cc1` (stereo partly drawn) [Example 276, (3R)-3-(2-(2-chloro-5-fluoro-3,4-dihydroxyphenyl)-2-(3-((3-(3-(4-hydroxyphenyl)ureido)propyl)sulfonyl)-2-oxoimidazolidine-1-carboxamido)acetamido)-7-fluoro-2-hydroxy-3,4-dihydro-2H-benzo[e][1,2]oxaborinine-8-carboxylic acid], for which the MIC with P. aeruginosa ATCC 27853 lay within 2 to 4 µg/mL (≈ 2.47 to 4.93 µM); in the test with N. gonorrhoeae WHO G, 16 to 32 µg/mL (≈ 19.7 to 39.5 µM); with P. aeruginosa CDC-0095 it was 8 to 16 µg/mL (≈ 9.87 to 19.7 µM); in the test on A. baumannii CDC-0033, 8 to 16 µg/mL (≈ 9.87 to 19.7 µM); in the test on N. gonorrhoeae MS11, 16 to 32 µg/mL (≈ 19.7 to 39.5 µM); with P. aeruginosa CDC-0110, 2 to 4 µg/mL (≈ 2.47 to 4.93 µM). Moreover, the MIC in the test with A. baumannii CDC-0036 is 2 to 4 µg/mL (≈ 2.47 to 4.93 µM); in the test with A. baumannii 1258916, below 1 µg/mL; in the test on N. gonorrhoeae WHO Q, 16 to 32 µg/mL (≈ 19.7 to 39.5 µM); in [1], above 128 µg/mL. For the same compound, the IC50 in test [2] was below 10 µM.

The values above are taken from US20240270762A1, “PENICILLIN-BINDING PROTEIN INHIBITORS” (priority 2021, published 2024).
